Legend:
mice = assay: Acrolein-treated animal model (oral gavage) compared with vehicle control: glucose handling, renal function, kidney histology; assay type: in vivo
Procedure: To investigate the role of acrolein in the pathogenesis of diabetic nephropathy (DN), we compared the renal function of HFD/STZ-induced DN mice and mice treated with acrolein (2.5 mg/kg, p.o.) as shown in FIG. 2A.
We further explored the pathological abnormalities in HFD/STZ-induced DN mice and acrolein-treated mice.

[1] = test system: acrolein-modified BSA (Acr-BSA) or acrolein-modified OVA (Acr-OVA); assay: ELISA of hybridoma clones / purified Acr-PC antibody against acrolein-modified proteins; assay type: binding
Procedure: Monoclonal antibody preparation. Female BALB/c mice were immunized three times with the acrolein-treated ovalbumin (Acr-OVA). Spleen cells from the immunized mice were fused with NS0 murine myeloma cells and cultured in a hypoxantineyamethopterinythymidine selection medium. Culture supernatants of the hybridoma were screened using an ELISA assay, pairs of wells in the microtiter plates on which acrolein-treated BSA (Acr-BSA) was absorbed. After being incubated with 100 μl of hybridoma supernatants and washed with Tris-buffered saline (TBS) containing 0.05% Tween 20 (TBST), the wells were incubated with HRP-conjugated goat anti-mouse IgG, followed by a substrate solution containing TMB. Hybridoma cells corresponding to supernatants that were positive on Acr-BSA or Acr-OVA and negative on BSA or OVA were then cloned by limiting dilutions. After the repeated screening, five clones were obtained. […] After antibody purification from hybridoma clone #5, we confirmed the specificity and examined the antibody titer using a similar ELISA assay described above.

[2] = mice kidney, acrolein group vs control group (FIG. 2I)
[3] = mice, acrolein group vs control group (FIG. 2I)
[4] = antibody purified from hybridoma clone #5 (FIG. 3B)

Molecule | collagen fiber content and degree of fibrosis, Sirius red staining (mice; [2]) | positive immunohistochemical staining for Acr-PC in the glomeruli and renal tubules (mice; [2]) | insulin intolerance, insulin tolerance tests (ITT) (mice; mice, acrolein 2.5 mg/kg p.o., 16 weeks, severity not as high as in HFD/STZ mice (FIGS. 2D-E)) | blood glucose (fasting plasma glucose) (mice; mice, acrolein 2.5 mg/kg p.o., oral gavage for 16 weeks, vs control group (FIG. 2B)) | kidney histology, H&E staining (mice; [3]) | kidney histology, PAS staining (mice; [3]) | urine albumin/creatinine ratio (UACR) (mice; mice, oral gavage of acrolein for 12 weeks (FIG. 2F)) | urine albumin/creatinine ratio (UACR) (mice; mice, oral gavage of acrolein for 16 weeks, vs control group (FIG. 2F)) | uric acid (UA) (mice; mice, oral gavage of acrolein for 16 weeks, vs control group (FIG. 2G)) | blood urea nitrogen (BUN) (mice; mice, oral gavage of acrolein for 16 weeks, vs control group (FIG. 2H)) | antibody titer in ELISA [1, 4] | specificity in ELISA [1, 4] | recognition of Acr-BSA or Acr-OVA in ELISA ([1]; hybridoma supernatant, among five clones (#1 to #5) (FIG. 3A))
C=CC=O [acrolein] | increased evidently | significantly increased | induced insulin intolerance | did not increase blood glucose | disorderly, inflammatory cell infiltration in the interstitium and vacuolar lesion in the epithelial cells | glomerular mesangium expansion and extracellular matrix deposition | increased UACR, although not significantly | significant increase | significant increase | significant increase | – | – | –
clone #5: monoclonal antibody purified from hybridoma clone #5 recognizing acrolein-protein conjugate; heavy chain SEQ ID NO:1, light chain SEQ ID NO:2 (antibody, listed as Mus musculus, V domains shown) VH: QVQLQESGAELARPGASVRLSCKASGNIFPDHSINWVKQRTGQGLEWIGEIFHGSGNTYYNEKFKGKATLTADKSSTTVYLQLTSLTSEDSAVYFCARWVYGSSFFDVWGAGTTVTVSSAKTTPPSVYPLAP VL: DIVLTQTPASLAVSLGQTITIFCRASESVEYYGTNLMQWYQQKPGQPPRVLIYGASNVESGVPARFSGSGSGTDFSLNILPVEEDDIAMYFCQQSRKVPWTFGGGTKLEIKRADAAPTV | – | – | – | – | – | – | – | – | – | – | high | high specificity | most distinctive recognition of Acr-BSA or Acr-OVA
